Drawing on US7273880B2, “Selective NPY (Y5) antagonists” (H. Lunbeck A/S, priority 1999, dated 2007), this text covers melting point and Ki for 17 compounds.

Series [1] deals with hNPY-1,2,4 (human Y1, Y2, Y4 receptors). Description: Radioligand binding to membranes, cloned human Y1, Y2 and Y4 receptors. The settings on record: one bound given for all three. On the procedure:
Binding of the compounds of the present invention to human Y1, Y2, Y4, and Y5 receptors was evaluated using stably transfected 293 or LM(tk-) cells as described above. Stably transfected cell lines which may be used for binding assays include, for example, for the human Y1 receptor, 293-hY1-5 (deposited Jun. 4, 1996, under ATCC Accession No. CRL-12121), for the human Y2 receptor, 293-hY2-10 (deposited Jan. 27, 1994, under ATCC Accession No. CRL-11537), for the human Y4 receptor, L-hY4-3 (deposited Jan. 11, 1995, under ATCC Accession No. CRL-11779), and for human Y5 receptor, L-hY5-7 (deposited Nov. 15, 1995, under ATCC Accession No. CRL-11995). These cell lines were deposited with the American Type Culture Collection (ATCC), 10801 University Blvd., Manassas, Va. 20110-2209, U.S.A. under the provisions of the Budapest Treaty for the International Recognition of the Deposit of Microorganisms for the Purposes of Patent Procedure.
Membranes were harvested from COS-7 cells 48 hours after transient transfection. Adherent cells were washed twice in ice-cold phosphate buffered saline (138 mM NaCl, 8.1 mM Na2HPO4, 2.5 mM KCl, 1.2 mM KH2PO4, 0.9 mM CaCl2, 0.5 mM MgCl2, pH 7.4) and lysed by sonication in ice-cold sonication buffer (20 mM Tris-HCl, 5 mM EDTA, pH 7.7). Large particles and debris were cleared by low speed centrifugation (200×g, 5 min, 4° C.). Membranes were collected from the supernatant fraction by centrifugation (32,000×g, 18 min, 4° C.), washed with ice-cold hypotonic buffer, and collected again by centrifugation (32,000×g, 18 min, 4° C.). The final membrane pellet was resuspended by sonication into a small volume of ice-cold binding buffer (˜1 ml for every 5 plates: 10 mM NaCl, 20 mM HEPES, 0.22 mM KH2PO4, 1.26 mM CaCl2, 0.81 mM MgSO4, pH 7.4). Protein concentration was measured by the Bradford method (Bradford, 1976) using Bio-Rad Reagent, with bovine serum albumin as a standard. Membranes were held on ice for up to one hour and used fresh, or flash-frozen and stored in liquid nitrogen.
Membranes were prepared similarly from 293, LM(tk-), and NIH-3T3 cells. To prepare membranes from baculovirus infected cells, 2×10^7 Sf21 cells were grown in 150 mm tissue culture dishes and infected with a high-titer stock of hY5BB3. Cells were incubated for 2-4 days at 27° C., no CO2 before harvesting and membrane preparation as described above.
Membrane suspensions were diluted in binding buffer supplemented with 0.1% bovine serum albumin to yield an optimal membrane protein concentration so that ^125I-PYY (or alternative radioligand such as ^125I-NPY, ^125I-PYY3-36, or ^125I-[Leu^31Pro^34]PYY) bound by membranes in the assay was less than 10% of ^125I-PYY (or alternative radioligand) delivered to the sample (100,000 dpm/sample=0.08 nM for competition binding assays). ^125I-PYY (or alternative radioligand) and peptide competitors were also diluted to desired concentrations in supplemented binding buffer. Individual samples were then prepared in 96-well polypropylene microtiter plates by mixing 125I-PYY (25 μL) (or alternative radioligand), competing peptides or supplemented binding buffer (25 μL), and finally, membrane suspensions (200 μL). Samples were incubated in a 30° C. water bath with constant shaking for 120 min. Incubations were terminated by filtration over Whatman GF/C filters (pre-coated with 1% polyethyleneimine and air-dried before use), followed by washing with 5 mL of ice-cold binding buffer. Filter-trapped membranes were impregnated with MeltiLex solid scintillant (Wallac, Turku, Finland) and counted for ^125I in a Wallac Beta-Plate Reader. Alternatively, incubations were carried out in GF/C filter plates (pre-coated with 1% polyethyleneimine and air-dried before use), followed by vacuum filtration and three washes of 300 μL of ice-cold binding buffer. 50 μL of UltimaGold (Packard) scintillant were added and counted for ^125I in a Wallac MicroBeta Trilux. […]

The target of series [2] is T1, human Y5 receptor (hNPY-5) (Homo sapiens, UniProt Q15761).
T1 construct: expressed in transfected cells; host or cells: mouse fibroblast LM(tk-) cells, e.g. L-hY5-7 (ATCC CRL-11995)
T1 sequence (Q15761 1-445): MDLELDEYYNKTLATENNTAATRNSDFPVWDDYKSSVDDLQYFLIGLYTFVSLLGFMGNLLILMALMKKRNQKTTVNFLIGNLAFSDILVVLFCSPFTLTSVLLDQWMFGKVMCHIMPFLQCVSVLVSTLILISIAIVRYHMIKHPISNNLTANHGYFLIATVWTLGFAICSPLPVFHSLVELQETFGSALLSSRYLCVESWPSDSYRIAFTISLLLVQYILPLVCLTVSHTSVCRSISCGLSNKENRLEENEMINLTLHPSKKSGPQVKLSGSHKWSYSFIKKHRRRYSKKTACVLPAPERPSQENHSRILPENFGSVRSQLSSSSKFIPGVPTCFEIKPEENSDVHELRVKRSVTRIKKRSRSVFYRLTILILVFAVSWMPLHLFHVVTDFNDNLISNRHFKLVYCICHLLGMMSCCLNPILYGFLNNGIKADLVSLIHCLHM
As to the kind of experiment: Radioligand binding to membranes, cloned human Y5 receptor. Conditions: cloned human NPY Y5 receptor, radioligand competition binding; Tables 1-3; read-out: Ki, nM hNPY-5. In a few lines: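 Competition binding on membranes from stably transfected 293 or LM(tk-) cells, with 0.08 nM ¹²⁵I-PYY in pH 7.4 HEPES buffer plus 0.1% BSA, 120 min at 30 °C, filtration and counting. Nonspecific binding defined by 300 nM human NPY, or 100 nM human PP for Y4; nonlinear regression.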
A general note: Displacement assays read how much labelled ligand stays bound in the presence of the test substance.

Molecules are shown by their SMILES.

Regarding `CS(=O)(=O)NC[C@H]1CC[C@H](Nc2nc3c(s2)CCOc2ccccc2-3)CC1` [Example 47, trans-N2-(4-Methylsulfonylaminomethyl)cyclohexyl-4,5-dihydro-benzo[2,3]oxepino[4,5-d][1,3]thiazol-2-amine], the melting point was in the range of 67 to 69 °C. For the same compound, the Ki in series [1] is > 10000 nM. Further, in series [2], the inhibitory constant (Ki) stood at 22 nM.
Regarding `CS(=O)(=O)NCCCCC(=O)Nc1nc2c(s1)CCCc1ccc(F)cc1-2` [Example 45, N1-(9-fluoro-5,6-dihydro-4H-benzo[6,7]cyclohepta-[d][1,3]thiazol-2-yl)-5-[(methylsulfonyl)amino]-pentanamide], the melting point lay in the range of 145 to 147 °C. For the same compound, the inhibition constant (Ki) in series [1] was > 10000 nM. For the same compound, in series [2], the Ki is 65 nM.
The corresponding values for `CCN(CC)S(=O)(=O)N[C@H]1CC[C@H](Nc2nc3c(s2)CCCc2ccc(F)cc2-3)CC1` [Example 35, trans-1-Aza-9-fluoro-4,5-dihydro-2-(4-diethylamino-sulfonylamino)cyclohexylamino-3-thia-benzo[e]azulene] are 172 to 174 °C, > 10000 nM and 6.5 nM.
The compound `O=S(=O)(N[C@H]1CC[C@H](Nc2nc3c(s2)CCCc2ccc(F)cc2-3)CC1)c1cccs1` [Example 37, trans-1-Aza-9-fluoro-4,5-dihydro-2-(4-(2-thienyl)-sulfonyl-amino)cyclohexylamino-3-thia-benzo[e]azulene] registered a melting point of 230 to 231 °C. In addition, in series [1], the inhibitory constant (Ki) is > 10000 nM. Also, the Ki in series [2] amounted to 7.4 nM.
For `NS(=O)(=O)NC[C@H]1CC[C@H](Nc2nc3c(s2)CCOc2ccccc2-3)CC1` [Example 46, trans-N2-(4-Aminosulfonylaminomethyl)cyclohexyl-4,5-dihydro-benzo[2,3]oxepino[4,5-d][1,3]thiazol-2-amine], in that order: 170 to 173 °C, > 10000 nM and 34 nM.
In the case of `CCS(=O)(=O)NC[C@H]1CC[C@H](Nc2nc3c(s2)CCCc2ccc(F)cc2-3)CC1` [Example 31, trans-N2-(4-Ethylsulfonylaminomethyl)cyclohexyl-9-fluoro-5,6-dihydro-4H-benzo[6,7]cyclohepta[d][1,3]-thiazol-2-amine], the values for the Ki in series [1] and in series [2] were > 10000 nM and 3.9 nM, respectively.
Compound `COC[C@@H]1CCCN1S(=O)(=O)c1ccc(Nc2nc3c(s2)CCCc2ccc(F)cc2-3)cc1` [Example 9, 1-Aza-9-fluoro-4,5-dihydro-2-(4-((2(S)-methoxy-methyl)-pyrrolidine-1-yl)sulfonyl)phenylamino-3-thia-benzo[e]azulene] yielded a melting point of 186 to 188 °C. In addition, the inhibitory constant (Ki) in series [1] was > 10000 nM. Besides, the inhibitory constant (Ki) in series [2] came to 15.4 nM.
Take `O=S(=O)(N[C@H]1CC[C@H](Nc2nc3c(s2)CCCc2ccc(F)cc2-3)CC1)c1cccnc1` [Example 54, trans-1-Aza-9-fluoro-4,5-dihydro-2-(4-(3-pyridyl-sulfonylamino)cyclohexyl)amino-3-thia-benzo[e]azulene]: the inhibition constant Ki in series [1] was > 10000 nM; in series [2], 11.9 nM.
As for `O=S(=O)(NCCCCCNc1nc2c(s1)CCCc1ccc(F)cc1-2)c1ccc(F)cc1F` [Example 12, 1-Aza-9-fluoro-4,5-dihydro-2-(5-(2,4-difluoro-phenyl)sulfonylamino)pentylamino-3-thia-benzo[e]-azulene], the inhibitory constant (Ki) in series [1] was > 1000 nM; in series [2], 6.1 nM.
As to `CCN(CC)S(=O)(=O)NCCCCCNc1nc2c(s1)CCCc1ccc(F)cc1-2` [Example 14, 1-Aza-9-fluoro-4,5-dihydro-2-(5-(diethyl-aminosulfonyl-amino)pentyl)amino-3-thia-benzo[e]-azulene], the values for the inhibitory constant (Ki) in series [1] and in series [2] were > 10000 nM and 2.1 nM, respectively.
For `CC(C)(C)OC(=O)NCCCCCNc1nc2c(s1)CCSc1ccc(F)cc1-2` [Example 105, tert-Butyl N-{5-[(9-fluoro-4,5-dihydrobenzo[2,3]-thiepino[4,5-d][1,3]thiazol-2-yl)amino]pentyl}-carbamate], the Ki in series [1] was > 10000 nM; in series [2], 91 nM.
`O=S(=O)(Cc1ccccc1)NC[C@H]1CC[C@H](Nc2nc3c(s2)CCCc2ccc(F)cc2-3)CC1` [Example 29, trans-1-Aza-2-{4-benzylsulfonylaminomethyl}-cyclohexylamino-9-fluoro-4,5-dihydro-3-thia-benzo[e]-azulene]: the values for the inhibition constant Ki in series [1] and in series [2] were > 10000 nM and 10.3 nM, respectively.
For the compound `Cc1noc(C)c1S(=O)(=O)NCCCCCNc1nc2c(s1)CCCc1ccc(F)cc1-2` [Example 24, 1-Aza-9-fluoro-4,5-dihydro-2-(5-(3,5-dimethyl-isoxazol-4-yl)sulfonylamino)pentylamino-3-thia-benzo[e]azulene], the Ki in series [1] was > 10000 nM; in series [2] it was 3.5 nM.
For the compound `CCN(CC)S(=O)(=O)NCCCCCNc1nc2c(s1)CCSc1ccccc1-2` [Example 103, N′-[5-(4,5-Dihydrobenzo[2,3]thiepino[4,5-d][1,3]thiazol-2-ylamino)pentyl]-N,N-diethylsulfamide], the figures for the Ki in series [1] and in series [2] were > 10000 nM and 3.7 nM, respectively.
On to `COc1ccc(S(=O)(=O)NCCCCCNc2nc3c(s2)CCCc2ccc(F)cc2-3)cc1` [Example 18, 1-Aza-9-fluoro-4,5-dihydro-2-(5-(4-methoxyphenyl)-sulfonylamino)pentylamino-3-thia-benzo[e]azulene], for which the inhibition constant Ki in series [1] was > 10000 nM; in series [2], 7.1 nM.
For the compound `O=S(=O)(NC[C@H]1CC[C@H](Nc2nc3c(s2)CCCc2ccc(F)cc2-3)CC1)c1c(F)cccc1F` [Example 28, trans-N2-(4-(2,6-Difluorophenylsulfonyl)aminomethyl)-cyclohexyl-9-fluoro-5,6-dihydro-4H-benzo[6,7]-cyclohepta-[d][1,3]-thiazol-2-amine], the Ki is > 10000 nM in series [1] and 4 nM in series [2].
On to `Cc1noc(C)c1S(=O)(=O)NC[C@H]1CC[C@H](Nc2nc3c(s2)CCCc2ccc(F)cc2-3)CC1` [Example 33, trans-1-Aza-9-fluoro-4,5-dihydro-2-{4-(3,5-dimethylisoxazol-4-yl)sulfonylaminomethyl}cyclohexyl-amino-3-thia-benzo[e]azulene], for which the Ki in series [1] was > 10000 nM; in series [2], 6.8 nM.

One may read the melting point as the temperature, or range, at which the solid turns liquid. As a reminder, the Ki is a dissociation constant, usually derived from enzyme kinetics or from competition with a known ligand.
